Reference: US5407927A, “Treatment of mild depression and restoration of IGF-I levels in aging by dehydroepiandrosterone” (The Regents of the University of California, priority 1993, dated 1995)
Like-named read-outs stand apart in the source and are kept apart here.

What was measured:
Assay type in all cases: in vivo, human
[1] = Serum DHEA and DHEAS levels during oral DHEA (immunoassay)
Method: FIG. 1: DHEAS and DHEA serum levels in men and women at baseline, 2 and 12 weeks of DHEA (50 mg) administration and 2 weeks after discontinuation. The horizontal solid line represents mean level during the second decade of life.
(§1) Seventeen women and 13 men ages 40-70 in good medical health were enrolled in a clinical trial of DHEA replacement of 6 months duration. The trial was structured as a double-blind randomized placebo-controlled crossover study. […] These subjects were seen monthly and received 50 mg DHEA orally, nightly for 3 months and placebo for 3 months.
(§2) Blood specimens were drawn from all subjects in the study at baseline (time 0) and at 2 weeks and 12 weeks after DHEA administration, and at 2 weeks after DHEA administration was discontinued. DHEA, DHEAS, androstenedione, testosterone, dihydrotestosterone, and the sex hormone binding globulin were all measured by immunoassay as described by Anderson, D.C., et al. Steroid, 1976, 28:179.
(§3) Serum levels of testosterone, androstenedione, and dihydrotestosterone, as well as the sex-hormone binding globulin are shown in FIG. 2.

[2] = tested on: testosterone, androstenedione, and dihydrotestosterone; experiment: Serum androgen levels during oral DHEA (immunoassay); settings: 50 mg DHEA orally, nightly
Method: (§4) FIG. 2: Hormonal levels during DHEA (50 mg) therapy (represented by stippled area) in men and women. ADIONE (androstenedione); TEST (testosterone); DHT(dihydrotestosterone); SHBG(sex-hormone binding globulin). The shaded area represents the duration of DHEA treatment.
as §1, §2, §3

[3] = tested on: sex-hormone binding globulin; experiment: Serum sex-hormone binding globulin during oral DHEA (immunoassay); settings: 50 mg DHEA orally, nightly
Method: as §4, §1, §2, §3

[4] = Body composition (% body fat by bioelectric impedance, BMI); settings: DHEA 50 mg orally, nightly, 3 months, mean ± standard error
Method: The term "BMI" means body mass index which is body weight (kg)/height (m^2).
as §1
(§5) Insulin sensitivity and glucose effectiveness were measured by euglycemic hyperinsulinemic clamp (Bergman, R.N. J. Clin. Invest., 1987, 79:790-800) and rapid intravenous glucose tolerance test (Bergman, R.N., et al. Amer. J. Physiol., 1979, 236:667-677) and % body fat as measured by bioelectric impedance (Lukaski, H. Amer. J. Nutrition, 1987, 46:537) were measured on all patients after DHEA of placebo treatment. The glucose disposal rate was also measured using Bergman, 1987 (supra).

[5] = Glucose metabolism (euglycemic hyperinsulinemic clamp, rapid intravenous glucose tolerance test); settings: DHEA 50 mg orally, nightly, 3 months, mean ± standard error
Method: as §1, §5

[6] = Serum cholesterol, triglycerides, HDL and LDL (standard enzymatic methods); settings: for CHOLESTEROL / HDL / LDL / TG: DHEA (50 mg) × 3 months, mean ± standard error
Method: as §1
(§6) Serum cholesterol, triglycerides, apolipoproteins A1 and B, and the HDL and LDL lipoproteins were measured on all serum specimens. Cholesterol, triglycerides, HDL and LDL were measured by standard enzymatic methods. (Allain, C.A., et al., Clin. Chem. 1974, 20:470.) Apolipoproteins were measured by immunoassay methods. Immunoassay methods for measurement of apolipoproteins are described in the literature. […] All other lipid or lipoprotein levels were unchanged by the DHEA administration.

[7] = Serum apolipoproteins (immunoassay); settings: DHEA (50 mg) × 3 months, mean ± standard error
Method: as §1, §6

[8] = Sense of well-being or mood-elevating effect (question to subjects); settings: DHEA 50 mg, 3 months
Method: as §1
Sense of well-being or mood-elevating effect was reported in response to a question: "Have you noted any effect, good or bad during this treatment?
(§7) Libido was self-reported by the patients and scored on a visual analog scale. Subjects were evaluated at the end at the 3 month period of DHEA or placebo treatment.

[9] = Self-reported libido (visual analog scale); settings: end of 3 month DHEA period
Method: as §1, §7

[10] = tested on: insulin-like growth factor I (IGF-I); experiment: Serum insulin-like growth factor I (immunoassay); settings: DHEA 50 mg, 3 months
Method: (§8) Blood specimens are drawn from patients immediately prior to the onset of DHEA administration and preferentially at 30 days after the beginning of treatment and at periodic intervals thereafter determined by the treating physician. Serum IGF-I and IGF BP-I levels are determined by immunoassay on these blood specimens. There are a variety of immunoassay methods available for determination of IGF-I and IGF BP-I which are reported in the literature and which are known to those of skill in the art. (Breier, B.H., et al., J. of Endocrinol., 1991, 128:347-357 and Pekonen, F. et al. J. Immunoassay, 1989, 10:325-337.
as §1
(§9) Insulin-like growth factor I and insulin-like growth factor binding protein I were measured in serum specimens by immunoassay as described previously.

[11] = tested on: insulin-like growth factor binding protein I (IGF BP-I); experiment: Serum insulin-like growth factor binding protein I (immunoassay); settings: DHEA 50 mg, 3 months
Method: as §8, §1, §9

[12] = Pharmacokinetic study comparing oral and sublingual administration of DHEA; settings: for Tmax: human, serum, read-out: time to peak levels of DHEA
Method: FIG. 5: Hormonal levels in men and women after oral 50 mg DHEA (.cndot. and sublingual 50 mg. DHEA (.smallcircle. ).
A pharmacokinetic study comparing oral and sublingual administration of DHEA was performed on the men and women subjects. DHEA, DHEAS, androstenedione, testosterone and dihydrotestosterone were measured by the immunoassay methods described above on serum specimens drawn at 30 minutes, 1 hour, 2 hours, 4 hours, 5 hours and 8 hours after dose administration. […] Peak levels of DHEA were achieved within 30 minutes with the sublingual route and 3 hours with the oral route.

[13] = Side effects and safety parameters (physical exams, hematology, chemistry) in clinical trial; settings: 17 women and 13 men ages 40-70; 50 mg orally, nightly, 3 months
Method: as §1

## C[C@]12CC[C@H](O)CC1=CC[C@@H]1[C@@H]2CC[C@]2(C)C(=O)CC[C@@H]12 [DHEA, dehydroepiandrosterone]
[1]; adults 40-80 years old, 50 to 100 mg orally or sublingually daily, FIG. 1
  blood levels of DHEA: in the physiological range for younger adults
[1]; men and women, 50 mg DHEA orally, nightly, three month trial
  DHEAS serum levels (maintenance): maintained throughout the three month trial
[1]; men and women, 50 mg DHEA orally, nightly, within 2 weeks of administration
  DHEAS serum levels (rise): rose to those levels seen in the second decade of life within 2 weeks of administration
[1]; men and women, after discontinuing 50 mg DHEA
  time for DHEAS levels to return to baseline after discontinuing DHEA: ≤ 2 weeks
[2]; men
  androgens, particularly dihydrotestosterone and estrogens: no changes in any androgens
[2]; women
  androgen levels (testosterone, androstenedione, dihydrotestosterone): doubling of their androgen levels
[3]
  Sex-hormone binding globulin level: a trend of decline but this decline was not statistically significant
[4]; men
  % FAT: 21.9 ± 1.3%
  BMI: 27.0 ± 0.7 kg/m^2
[4]; women
  % FAT: 31.3 ± 1.0%
  BMI: 24.7 ± 0.7 kg/m^2
[5]; men
  GLUCOSE DISPOSAL RATE: 7.64 ± 0.056 mg/kg/min
  GLUCOSE EFFECTIVENESS: 0.019 ± 0.001 min⁻¹
  INSULIN SENSITIVITY: 3.69 ± 0.5 × 10^-4 min^-1 uU^-1 ml
[5]; women
  GLUCOSE EFFECTIVENESS: 0.024 ± 0.002 min⁻¹
  INSULIN SENSITIVITY: 2.90 ± 0.4 × 10^-4 min^-1 uU^-1 ml
[6]; men
  CHOLESTEROL: 209.9 ± 9.4
  HDL: 44.8 ± 1.7
  LDL: 147.5 ± 8.5
  TG: 107.7 ± 10.5
[6]; women and men, DHEA 50 mg, 3 months
  all other lipid or lipoprotein levels (change, in words): unchanged
[6]; women, DHEA 50 mg, 3 months
  HDL levels (change, in words): Only a small reduction in HDL levels were seen in women
[6]; women
  CHOLESTEROL: 218.3 ± 6.9
  HDL: 63.4 ± 2.7
  LDL: 136.0 ± 4.9
  TG: 94.2 ± 7.4
[7]; men
  APO A1: 167.4 ± 6.1
  APO B: 149.8 ± 8.5
[7]; women
  APO A1: 213.7 ± 8.1
  APO B: 137.4 ± 5.9
[8]; majority of both men and women, in retrospect
  mood-elevating effect: An impressive mood-elevating effect was noted in retrospect by the majority of both men and women
[8]; men and women
  responses to question on effect noted during treatment: "sleeping better" "better ability to handle stress" "more relaxed", "easier time falling asleep", "more energy" and "better moods"
[9]
  self-reported libido: no difference was seen while subjects were on DHEA
[10]; men and women
  IGF-I (change, in words): statistically significant elevation
[10]; men and women, inferred from IGF-I and IGF BP-I
  free IGF-I (change, in words): overall increase in free IGF-I
[10]; men
  IGF-I increase: 10%
[10]; women
  IGF-I increase: 12%
[11]; men and women
  IGF BP-I (change, in words): decrease
[11]; men
  IGF BP-I decrease: 12%
[11]; women
  IGF BP-I decrease: 22%
[12]; 50 mg, men and women
  rate of absorption, sublingual versus oral: absorbed most rapidly sublingually
[12]; oral 50 mg
  Tmax: ≤ 3 h
[12]; sublingual 50 mg
  Tmax: ≤ 0.5 h
[13]
  Safety parameters (physical exams, hematology, chemistry): all within normal limits
  side effects: No side effects were reported
